Results as given in patent US20210330606A1, “GLUCOSE CONSUMPTION ACCELERATOR AND GLYCOLYSIS ACCELERATOR” (SHINKO SANGYO Co., Ltd., priority 2018, published 2021).
Where “and” joins values, the source holds several entries; their conditions need not be identical. Identical values can stand only once.

Tests used:
[1] = test system: rat-derived liver cancer cells (Ry121B, subculture line); test: Lactate concentration in culture solution of liver cancer cells (relative value, control = 100); format: cell-based; settings: drug 1 mg/ml, control = 100 (FIG. 7B)
Experimental: (§1) First, samples of 2-amino-1-cyclohexylethanol and 2-amino-1-phenylethanol were prepared in the same manner as in Example 1. The fibroblasts and the liver cancer cells were cultured under the same conditions as in Examples 1 and 5. […] As a control, the culture was performed in the same manner except that distilled water to which the drug was not added was added to the culture solution instead of the sample.
(§2) After the addition of the drug, the culture solution was diluted so that the weight ratio of the culture solution to distilled water was 1:19, and the lactate concentration of the diluted culture solution was measured. The lactate concentration was measured using a lactate assay kit (product name: Lactate Assay Kit-WST, product of Dojindo Laboratories).

[2] = test system: rat-derived liver cancer cells (Ry121B, subculture line); settings: drug 1 mg/ml, control = 100
Experimental: After the addition of the drug, the glucose concentration of each of the culture solutions was measured immediately after the start of the culture and after the completion of the culture. The glucose concentration was measured using a glucose assay kit (Waco). Then, the glucose concentration after the completion of the culture was divided by the glucose concentration immediately after the start of the culture (5.6 mmol per liter) to calculate the glucose consumption.

[3] = test system: Py-3Y1-S2, TE-13, VERO and HepG2 cells; test: Lactate concentration after 2 to 3 days culture, lactate metabolism, mean over four cell types (Example 9); format: cell-based, rat, human, African green monkey; settings: drug 0.5 mg/ml, 2 to 3 days (48 to 72 hours) culture, mean of four experiments
Experimental: as §2
First, samples of 2-amino-1-cyclohexylethanol (2-amino-1-cyclohexyl EOH) and 2-amino-1-phenylethanol (2-amino-1-phenyl EOH) were prepared in the same manner as in Example 1. Four types of cells were used as in Example 8, and each of the cells was cultured under the same conditions as in Example 1. […] Thereafter, the culture time was lengthened to 2 to 3 days (48 to 72 hours) compared to Example 8. As a control 1, the culture was performed in the same manner except that distilled water to which the drug was not added was added to the culture solution instead of the sample. As a control 2, the culture was performed in the same manner as the […] except that a sample of biguanide prepared in the same manner as in Example 1 was added to the culture solution instead of the sample. Then, the lactate concentration in each sample was measured in the same manner as in Example 6. Each of the four cells was used for a total of four experiments.

[4] = test system: Rat-derived fibroblasts (Py-3Y1-S2, subculture strain); test: Lactate concentration in culture solution of fibroblasts (relative value, control = 100); format: cell-based; settings: drug 1 mg/ml, control = 100 (FIG. 7A)
Experimental: as §1, §2

Male mice of ICR strain = test: Blood glucose level of mice after oral glucose load with the drug; format: in vivo, mouse; settings: drug 50 mg/kg + glucose 2000 mg/kg oral
Experimental: As a drug, 2-amino-1-phenylethanol was used. First, glucose (KANTO CHEMICAL CO., INC.) was dissolved in water for injection so as to achieve a concentration of 200 mg/ml, thereby preparing a glucose solution. Next, the drug was dissolved in the water for injection, and then the glucose solution was added thereto so that the drug and glucose had final concentrations of 2.5 mg/ml and 100 mg/ml, respectively, thereby preparing a sample. As a control of the drug, the culture was performed in the same manner except that 100 mg/ml glucose solution to which the drug was not added was used instead of the sample.
Male mice of 6-week-old ICR strain were purchased from Japan SLC, Inc., and preliminary rearing was carried out for about 1 week to check there was no abnormality in performance status. The conditions for the preliminary rearing were as follows: 4 mice each were housed in a polycarbonate cage, room temperature was 23° C.±3° C., and illumination time was 12 hours/day. Diets (mice and rat chow, product of Nosan Corporation) and drinking water (tap water) were freely ingested.
After the preliminary rearing, the mice were fasted for about 21 hours, and then body weight and blood glucose levels were measured. The mice were divided into the total of two groups, namely, a test group and a control group to ensure that there was no variation in blood glucose levels between the groups. The number of animals in each group was eight.
After the grouping, mice of the test group and the control group were orally administered a single dose of the sample and the control, respectively, using a gastric sonde to a dose volume of 20 ml/kg. That is, the test group mice were administered the drug and glucose at doses of 50 mg/kg and 2000 mg/kg, respectively, and the control group mice were administered glucose at a dose of 2000 mg/kg. With the time of the administration being regarded as 0 minutes, the blood glucose level was measured at 30 minutes, 60 minutes, 90 minutes, and 120 minutes. The blood glucose level was measured by using an ACCU-CHEK Aviva (Roche Diagnostics K.K.), blood was collected by inserting an injection needle into the tip of the tail, and the blood glucose level was measured for the collected blood.
As to the blood glucose levels at 0 minutes, 30 minutes, 60 minutes, 90 minutes and 120 minutes, the test group and the control group were compared by t-test. The significance levels were 5% and 1%.
In addition, the area under the curves (AUCs) were calculated for the measured blood glucose levels. The AUC was calculated by calculating the area surrounded by the measurement curve and a straight line parallel to the time axis and passing through the measured value at the time of administration in the graph with the measured value on the vertical axis and the time on the horizontal axis. Then, the test group and the control group were compared by t-test for AUC in the same manner as the comparison for the blood glucose level.

**Q.** With NCC(O)c1ccccc1 (centres unmarked) [2-amino-1-phenylethanol] as the molecule, how does the “relative value of lactate concentration” value [1] read?
**A.** Its value is “about 135”.

**Q.** What about the “relative value of glucose consumption” value [2] of the same molecule?
**A.** The value was “about 140”.

**Q.** And the “lactate concentration in the culture solution compared to control 1” value [3]?
**A.** Its value is “equivalent to that of control 1”.

**Q.** What about the “relative value of lactate concentration” value [4] of the same molecule?
**A.** Its value is “about 185”.

**Q.** And the “AUC Calculated value (blood glucose)” value (Male mice of ICR strain; individual mice, 0-120 minutes above value at administration)?
**A.** The value was 173 mg/dL·h and 142 mg/dL·h (2×) and 177 mg/dL·h and 171 mg/dL·h and 132 mg/dL·h and 127 mg/dL·h and 258 mg/dL·h.

**Q.** And the blood glucose level (Male mice of ICR strain; individual mice, 0 minutes (time of administration))?
**A.** Its blood glucose level is 46 mg/dL and 53 mg/dL and 61 mg/dL and 70 mg/dL and 54 mg/dL and 60 mg/dL and 86 mg/dL and 59 mg/dL.

**Q.** What about the blood glucose level (Male mice of ICR strain; individual mice, 30 minutes post-administration) of the same molecule?
**A.** Its blood glucose level is 177 mg/dL and 194 mg/dL (2×) and 222 mg/dL and 165 mg/dL and 202 mg/dL and 219 mg/dL and 256 mg/dL.

**Q.** And the blood glucose level (Male mice of ICR strain; individual mice, 60 minutes post-administration)?
**A.** Its blood glucose level is 151 mg/dL and 136 mg/dL (2×) and 180 mg/dL and 171 mg/dL and 141 mg/dL and 160 mg/dL and 223 mg/dL.

**Q.** And the blood glucose level (Male mice of ICR strain; individual mice, 90 minutes post-administration)?
**A.** Its blood glucose level is 121 mg/dL and 93 mg/dL and 138 mg/dL (2×) and 117 mg/dL and 91 mg/dL and 120 mg/dL and 176 mg/dL.

**Q.** What about the blood glucose level (Male mice of ICR strain; individual mice, 120 minutes post-administration) of the same molecule?
**A.** The blood glucose level was 116 mg/dL and 91 mg/dL and 112 mg/dL and 113 mg/dL and 108 mg/dL and 79 mg/dL and 111 mg/dL and 134 mg/dL.

**Q.** And the “AUC Mean value ± Standard error (blood glucose)” value (Male mice of ICR strain; test group No. 1 to No. 8)?
**A.** The value was 165 ± 15 mg·h/dL.
